Patent US11440923B2, “Substituted macrocyclic indole derivatives” (Bayer Aktiengesellschaft, priority 2017, dated 2022)
Structures can show the parent of a compound that is named as a salt. Where two headings read alike, the source gives them in different places.

How the values were obtained:
Type in all cases: cell-based
[1] = system: AMO-1 cells; assay: Antiproliferation assay AMO-1 (Assay 7)
Method in brief: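 Anti-proliferative effect was measured by CellTiter-Glo ATP luminescence after 72 h compound exposure at 37° C, following overnight plating. IC50s were derived using a parallel time-zero plate and DMSO-treated controls as reference points.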

[2] = system: SUDHL5 cells; assay: Induction of caspase-3/7 activity in SUDHL5 cells (Assay 4)
Method in brief: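 Read-out: Caspase-Glo 3/7 luminescence (1 h, 37 °C) after cells, plated overnight, were treated with compounds for 3 h at 37 °C. Signal corrected for cell-free medium background and expressed relative to DMSO control mean.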

[3] = system: SUDHL5 cells; assay: Induction of cytotoxicity in SUDHL5 cells (Assay 6); conditions: 5 h, CellTiter-Glo, read-out: Cytotox SUDHL5 IC50 (median)
Method in brief: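 Run alongside apoptosis measurements, this cytotoxicity readout used cells treated with compound for 5 h at 37 °C and quantified ATP-based luminescence with CellTiter-Glo.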

[4] = Homo sapiens, AMO1, 72 h, 72 h, CellTiter-Glo, read-out: Antiproli AMO-1 IC50 median
[5] = Homo sapiens, SU-DHL-5, 3 h, caspase-3/7 induction, 3 h; read-out: Caspase SUDHL5 EC50 (median)
[6] = read-out: Antiproli AMO-1 IC50 median, 72 h, CellTiter-Glo
[7] = read-out: Caspase SUDHL5 EC50 (median); caspase-3/7 induction, 3 h

## CCc1c2c(nn1C)C(C1CC1)OCCCCn1c(C(=O)O)c(CCCOc3cccc4cc(F)ccc34)c3ccc(Cl)c-2c31 (racemic) [Example 38, (rac)-4-chloro-(15-rac)-cyclopropyl-3-ethyl-7-{3-[(6-fluoronaphthalen-1-yl)oxy]propyl}-2-methyl-2,10,11,12,13,15-hexahydropyrazolo[4′,3′:9,10][1,6]oxazacycloundecino[8,7,6-hi]indole-8-carboxylic Acid]
[1]; [4]
  IC50: 5010 nM
[2]; [5]
  EC50: 3600 nM
[3]; Homo sapiens, SU-DHL-5, 5 h
  IC50: 1500 nM

## CCc1c2c(nn1C)C(CCC1CCOCC1)OCCCCn1c(C(=O)O)c(CCCOc3cccc4cc(F)ccc34)c3ccc(Cl)c-2c31 (single isomer, unassigned; enantiomer 1) [Example 61, 4-chloro-3-ethyl-7-{3-[(6-fluoronaphthalen-1-yl)oxy]propyl}-2-methyl-15-[2-(oxan-4-yl)ethyl]-2,10,11,12,13,15-hexahydropyrazolo[4′,3′:9,10][1,6]oxazacycloundecino[8,7,6-hi]indole-8-carboxylic Acid (Enantiomer 1)]
[1]; 72 h, CellTiter-Glo, read-out: Antiproli AMO-1 IC50 median
  IC50: 22.5 nM
[2]; caspase-3/7 induction, 3 h; read-out: Caspase SUDHL5 EC50 (median)
  EC50: 31 nM
[3]
  IC50: 38 nM

## CCc1c2c(nn1C)C(CCC1CCOCC1)OCCCCn1c(C(=O)O)c(CCCOc3cccc4cc(F)ccc34)c3ccc(Cl)c-2c31 (single isomer, unassigned; enantiomer 1) [Example 63, (+)-4-chloro-3-ethyl-7-{3-[(6-fluoronaphthalen-1-yl)oxy]propyl}-2-methyl-15-[2-(oxan-4-yl)ethyl]-2,10,11,12,13,15-hexahydropyrazolo[4′,3′:9,10][1,6]oxazacycloundecino[8,7,6-hi]indole-8-carboxylic Acid—N-ethylethanamine Salt (Enantiomer 1)]
[1]; [6]
  IC50: 20 nM
[2]; [7]
  EC50: 35 nM
[3]
  IC50: 49 nM

## CCc1c2c(nn1C)C(C(F)(F)F)OCCCCn1c(C(=O)O)c(CCCOc3cccc4ccccc34)c3ccc(Cl)c-2c31 (single isomer, unassigned; enantiomer 1) [Example 33, (+)-4-chloro-3-ethyl-2-methyl-7-{3-[(naphthalen-1-yl)oxy]propyl}-15-(trifluoromethyl)-2,10,11,12,13,15-hexahydropyrazolo[4′,3′:9,10][1,6]oxazacycloundecino[8,7,6-hi]indole-8-carboxylic Acid—N-ethylethanamine Salt (Enantiomer 1)]
[1]; [6]
  IC50: 6960 nM
[2]; [7]
  EC50: 1800 nM
[3]
  IC50: 1100 nM

## CCc1c2c(nn1C)C(C1CC1)OCCCCn1c(C(=O)O)c(CCCOc3cccc4cc(F)ccc34)c3ccc(Cl)c-2c31 (single isomer, unassigned; enantiomer 1) [Example 39, (+)-4-chloro-15-cyclopropyl-3-ethyl-7-{3-[(6-fluoronaphthalen-1-yl)oxy]propyl}-2-methyl-2,10,11,12,13,15-hexahydropyrazolo[4′,3′:9,10][1,6]oxazacycloundecino[8,7,6-hi]indole-8-carboxylic Acid—N-ethylethanamine Salt (Enantiomer 1)]
[1]; Homo sapiens, AMO1, 72 h, read-out: Antiproli AMO-1 IC50 median, 72 h, CellTiter-Glo
  IC50: 4940 nM
[2]; [7]
  EC50: 750 nM
[3]
  IC50: 1000 nM

## CCc1c2c(nn1C)C1CCCCN1CCCCn1c(C(=O)O)c(CCCOc3cccc4ccccc34)c3ccc(Cl)c-2c31 (racemic) [Example 102, (rac)-18-chloro-1-ethyl-2-methyl-15-[3-(1-naphthyloxy)propyl]-2,3b,4,5,6,7,9,10,11,12-decahydropyrazolo[3′,4′:8,9]pyrido[1′,2′:6,7][1,6]diazacycloundecino[10,11,1-hi]indole-14-carboxylic Acid]
[1]; [4]
  IC50: 522 nM
[2]; [5]
  EC50: 770 nM
[3]; Homo sapiens, SU-DHL-5, 5 h
  IC50: 800 nM

## CCc1c2c(nn1C)C(CCN1CCOCC1)OCCCCn1c(C(=O)O)c(CCCOc3cccc4ccccc34)c3ccc(F)c-2c31 (single isomer, unassigned; enantiomer 1) [Example 11, 3-ethyl-4-fluoro-2-methyl-15-[2-(morpholin-4-yl)ethyl]-7-{3-[(naphthalen-1-yl)oxy]propyl}-2,10,11,12,13,15-hexahydropyrazolo[4′,3′:9,10][1,6]oxazacycloundecino[8,7,6-hi]indole-8-carboxylic Acid—N-ethylethanamine Salt (Enantiomer 1)]
[1]; [6]
  IC50: 159 nM
[2]; [7]
  EC50: 97 nM
[3]
  IC50: 95 nM
